Measurements published in paper PMC4335872, “Pharmacokinetic-Pharmacodynamic Analysis of Spiroindolone Analogs and KAE609 in a Murine Malaria Model” (Antimicrobial Agents and Chemotherapy, 2015).
Entries after “also recorded” stand apart in the source; their conditions may differ.

Tests used:
[1] = system: P. berghei GFP ANKA malaria strain PbGFPCON; test: Dose-response efficacy in the P. berghei malaria mouse model; assay type: in vivo, female NMRI mice; conditions: for Hill slope: dose vs parasitemia model; for Pmax (maximum parasitemia) / Pmin (minimum parasitemia): sigmoid dose-response model, single oral doses 24 h postinfection; for Pmax (maximum parasitemia) / Pmin (minimum parasitemia) / ED90 (effective dose causing a 90% reduction in parasitemia): parasitemia 72 h postinfection; for ED90 (effective dose causing a 90% reduction in parasitemia): single oral dose 24 h postinfection; for Efficacy in the P. berghei mouse model: single oral doses 2.5 to 100 mg/kg
From the text: All in vivo studies conducted at the Swiss Tropical and Public Health Institute (TPH) adhered to local and national regulations of laboratory animal welfare in Switzerland (permission no. 1731). For in vivo efficacy, female (specific-pathogen-free) […] (NMRI) mice were obtained from Janvier, Le Genest-Saint-Isle, France. Only mice without visible signs of disease were used for the study. Standard laboratory conditions were adopted for husbandry. In vivo antimalarial activity was assessed using groups of five female NMRI mice (20 to 22 g) intravenously infected on day zero with 2 × 10^7 erythrocytes parasitized with P. berghei GFP ANKA malaria strain PbGFPCON (a donation from A. P. Waters and C. J. Janse, Leiden University) ([39]). Untreated control mice typically died between day six and day seven postinfection. Experimental compounds were formulated in 10% ethanol, 30% PEG 400, and 60% of 10% vitamin E TPGS and were administered orally in a volume of 10 ml/kg. Dose-response efficacy studies were conducted for each spiroindolone analog. Doses of 2.5, 5, 10, 30, and 100 mg/kg were administered to groups of 5 mice each as a single dose at 24 h postinfection. Parasitemia, expressed as parasitized red blood cells (pRBCs) of >100 RBCs, was determined 72 h postinfection using standard flow cytometry techniques ([39]).
Data analysis was done using nonlinear mixed-effect modeling (NONMEM version VI 2.0), which analyzed the PD data from multiple dose groups obtained simultaneously from different experiments. Within NONMEM, first-order conditional estimation (FOCE) was the method used ([40]). The log-transformed dose and level of parasitemia were used for analysis. For each compound, a dose-response model was built, and the ED90 (effective dose lowering 90% of parasitemia) values were determined using equation 1 ([41]), where P is the parasitemia measured at any given dose, Pmax is the maximum level of parasitemia, Pmin is the minimum level of parasitemia, EZ50 is the dose required to produce 50% of the maximal effect, s is the Hill slope describing the steepness of the curve, and x is the dose (in mg/kg). 1 P=Pmin +{[Pmax−Pmin]/[1+10^(logEZ50−log x)×s]}

[2] = Parallel artificial membrane permeability assay (PAMPA); assay type: in vitro ADME; conditions: % fraction absorbed
From the text: page 5: Running title: PreclinicalPK -PD of antimalarials 73 to high through put form at using in- house standard assa y protocols that are described in the 74 literature. 75 (a)HT-Equilibrium solubilit y at pH 6.8( 1); (b)Parallel Artificial Membrane P ermeability Assa y 76 expressed in % fraction absorbed (FA) ( 2,3 ); (c)Apparent permeability from apical to […] 78 tested; (d)intrinsic clearance in mouse liver micro somes ex pressed as µ L/ min/mg protein, in 79 the presen ce of liver enzym es ( 6); (e)Mous e plasm a protein binding using rapid equilibrium […] 81 82 83 84 85 86 87 88 89 90 91 92 93 94 95 96 97 98 5

[3] = system: P. berghei; test: Dose fractionation and PK-PD analysis of KAE609 in the P. berghei malaria mouse model; assay type: in vivo, NMRI mice; conditions: for Parasitemia (mean ± SD): 48 h posttreatment; for %T>TRE: simulated, 48-h period
Protocol: The total daily doses were either administered as a single dose (24 h postinfection) or divided into two oral doses (BID) or three oral doses (TID) per day (Table 1). Four mice were used for each regimen, with the control mice receiving vehicle only. Parasitemia, expressed as parasitized red blood cells (pRBCs) of >100 RBCs, was determined at 72 h postinfection (48 h after the initiation of treatment with KAE609) using standard flow cytometry techniques ([39]).
The concentration of compounds that inhibited 99% of P. berghei growth (IC99) was used to calculate the threshold (TRE = 2 × IC99) and the PK-PD indices. […] The Cmax/TRE, AUC0–48/TRE, and %T>TRE at different doses and dosing regimens were calculated using the Berkeley Madonna Software (version 8.0.1) (Berkeley Madonna, University of California, Berkeley, Berkeley, CA).
The relationship between PK-PD indices (log-transformed Cmax/TRE, log-transformed AUC0–48/TRE, and %T>TRE) and log-transformed parasitemia was analyzed by nonlinear regression analysis. An exploratory analysis of the PK-PD data was done using various models, such as maximum effect (Emax), sigmoid Emax, and with and without slope. A sigmoidal dose-response (variable-slope) model without constants was fitted to the data. GraphPad Prism version 5.02 for Windows (GraphPad Software, San Diego, CA, USA) was the software used for this analysis. The model choice was guided initially by a visual inspection of the y-by-x plots and then by correlation analysis and by evaluating the standard error of the estimate. The parasitemia (P) measures at any value of each different PK-PD index are expressed in equation 1, where EZ50 (otherwise referred to as EC50) is the value of the specific PK-PD index (Cmax/TRE, AUC0–48/TRE, and %T>TRE, respectively) required to produce 50% of the maximal effect, x is any of the PK-PD indices, and Pmax, Pmin, and s are as described previously. The values of x corresponding to the maximum reduction in parasitemia were derived by interpolation based on equation 1.

[4] = system: P. berghei GFP ANKA malaria strain PbGFPCON; design: method as in PMID 20813948; conditions: cited from earlier work
[5] = interpolated from PK-PD model, 48 h observation
[6] = total dose 0.5 mg/kg p.o. as 1 x 0.5 mg/kg
[7] = total dose 0.5 mg/kg p.o. as 2 x 0.25 mg/kg (every 12 h)
[8] = total dose 0.5 mg/kg p.o. as 3 x 0.17 mg/kg (every 8 h)
[9] = total dose 1 mg/kg p.o. as 1 x 1 mg/kg
[10] = total dose 1 mg/kg p.o. as 2 x 0.5 mg/kg (every 12 h)
[11] = total dose 1 mg/kg p.o. as 3 x 0.33 mg/kg (every 8 h)
[12] = total dose 2 mg/kg p.o. as 1 x 2 mg/kg
[13] = total dose 2 mg/kg p.o. as 2 x 1 mg/kg (every 12 h)
[14] = total dose 2 mg/kg p.o. as 3 x 0.67 mg/kg (every 8 h)
[15] = total dose 4 mg/kg p.o. as 1 x 4 mg/kg
[16] = total dose 4 mg/kg p.o. as 2 x 2 mg/kg (every 12 h)
[17] = total dose 4 mg/kg p.o. as 3 x 1.33 mg/kg (every 8 h)
[18] = total dose 8 mg/kg p.o. as 1 x 8 mg/kg
[19] = total dose 8 mg/kg p.o. as 2 x 4 mg/kg (every 12 h)
[20] = total dose 8 mg/kg p.o. as 3 x 2.67 mg/kg (every 8 h)

C[C@H]1Cc2c([nH]c3ccc(Cl)cc23)[C@@]2(N1)C(=O)Nc1ccc(Cl)cc12 [(+)-2]
Hill slope [1]: −3.36
Pmax (maximum parasitemia) [1]: 30.90
Pmin (minimum parasitemia) [1]: 0.03
ED90 (effective dose causing a 90% reduction in parasitemia) [1]: 17.4 mg/kg

C[C@H]1Cc2c([nH]c3cc(Cl)ccc23)[C@@]2(N1)C(=O)Nc1ccc(Cl)cc12 [(+)-3]
Hill slope [1]: −6.4
Pmax (maximum parasitemia) [1]: 24.55
Pmin (minimum parasitemia) [1]: 0.12
ED90 (effective dose causing a 90% reduction in parasitemia) [1]: 17.9 mg/kg

C[C@H]1Cc2c([nH]c3ccc(F)cc23)[C@@]2(N1)C(=O)Nc1ccc(Cl)cc12 [(+)-4]
Hill slope [1]: −2.87
Pmax (maximum parasitemia) [1]: 30.90
Pmin (minimum parasitemia) [1]: 0.03
ED90 (effective dose causing a 90% reduction in parasitemia) [1]: 16.7 mg/kg
PAMPA %FA [2]: 97%

C[C@H]1Cc2c([nH]c3cc(F)ccc23)[C@@]2(N1)C(=O)Nc1ccc(Cl)cc12 [(+)-5]
Hill slope [1]: −2.99
Pmax (maximum parasitemia) [1]: 25.70
Pmin (minimum parasitemia) [1]: 0.05
ED90 (effective dose causing a 90% reduction in parasitemia) [1]: 38.1 mg/kg

C[C@H]1Cc2c([nH]c3cc(F)c(F)cc23)[C@@]2(N1)C(=O)Nc1ccc(Cl)cc12 [(+)-6]
Hill slope [1]: −2.03
Pmax (maximum parasitemia) [1]: 32.36
Pmin (minimum parasitemia) [1]: 0.09
ED90 (effective dose causing a 90% reduction in parasitemia) [1]: 17.3 mg/kg

C[C@H]1Cc2c([nH]c3cc(Cl)c(F)cc23)[C@@]2(N1)C(=O)Nc1ccc(Cl)cc12 [(+)-7 (KAE609)]
Complete cure (>30 days survival) ([1]; data not shown): complete cure
Hill slope [1]: −2.73
Pmax (maximum parasitemia) [1]: 33.88
Pmin (minimum parasitemia) [1]: 0.29
ED90 (effective dose causing a 90% reduction in parasitemia) [1]: 5.6 mg/kg
Type of killing suggested by PK-PD analysis ([3]; P. berghei malaria mouse model): time-dependent rather than concentration-dependent killing
AUC for reduction in parasitemia in the P. berghei murine malaria model ([3]; TRE = 48 ng/ml): 28,176 ng · h/ml
Cmax for reduction in parasitemia in the P. berghei murine malaria model ([3]; TRE = 48 ng/ml): 1,440 ng/ml
Cmax needed to reduce parasitemia by 50% in vivo ([3]; as derived from Cmax/TRE (Table 5)): 260 ng/mL
AUC0–48/TRE ratio likely to result in the maximum reduction in parasitemia [3, 5]: 587
Cmax/TRE ratio likely to result in the maximum reduction in parasitemia [3, 5]: 30
T>TRE likely to result in the maximum reduction in parasitemia [3, 5]: 100%
Hill slope, value (95% CI), PK-PD model for %T>TRE ([3]; parasitemia vs %T>TRE): −0.031 (−0.037 to −0.024)
Pmax, value (95% CI), PK-PD model for %T>TRE ([3]; parasitemia vs %T>TRE): 53.09 (32.28 to 87.50)
Pmin, value (95% CI), PK-PD model for %T>TRE ([3]; parasitemia vs %T>TRE): 0.15 (0.12 to 0.20)
Hill slope, value (95% CI), PK-PD model for AUC0–48/TRE ([3]; parasitemia vs AUC0–48/TRE): −1.63 (−2.04 to −1.22)
Pmax, value (95% CI), PK-PD model for AUC0–48/TRE ([3]; parasitemia vs AUC0–48/TRE): 32.66 (25.06 to 42.56)
Pmin, value (95% CI), PK-PD model for AUC0–48/TRE ([3]; parasitemia vs AUC0–48/TRE): 0.13 (0.09 to 0.20)
Parasitemia (mean ± SD) [3, 6]: 28.82 ± 4.49%
%T>TRE [3, 6]: 4.3%
Parasitemia (mean ± SD) [3, 7]: 38.28 ± 2.95%
%T>TRE [3, 7]: 0%
Parasitemia (mean ± SD) [3, 8]: 35.37 ± 5.32%
%T>TRE [3, 8]: 0%
Parasitemia (mean ± SD) [3, 9]: 17.82 ± 3.05%
%T>TRE [3, 9]: 10.7%
Parasitemia (mean ± SD) [3, 10]: 18.19 ± 6.81%
%T>TRE [3, 10]: 8.8%
Parasitemia (mean ± SD) [3, 11]: 20.31 ± 5.71%
%T>TRE [3, 11]: 0%
Parasitemia (mean ± SD) [3, 12]: 5.64 ± 1.69%
%T>TRE [3, 12]: 23.0%
Parasitemia (mean ± SD) [3, 13]: 6.48 ± 3.94%
%T>TRE [3, 13]: 22.7%
Parasitemia (mean ± SD) [3, 14]: 10.83 ± 4.67%
%T>TRE [3, 14]: 22.3%
Parasitemia (mean ± SD) [3, 15]: 0.63 ± 0.57%
%T>TRE [3, 15]: 54.5%
Parasitemia (mean ± SD) [3, 16]: 0.43 ± 0.38%
%T>TRE [3, 16]: 56.1%
Parasitemia (mean ± SD) [3, 17]: 0.55 ± 0.28%
%T>TRE [3, 17]: 57.3%
Parasitemia (mean ± SD) [3, 18]: 0.15 ± 0.03%
%T>TRE [3, 18]: 99.9%
Parasitemia (mean ± SD) [3, 19]: 0.18 ± 0.04%
%T>TRE [3, 19]: 99.8%
Parasitemia (mean ± SD) [3, 20]: 0.16 ± 0.02%
%T>TRE [3, 20]: 99.8%
Single oral dose giving 50% reduction in parasitemia ([4]; P. berghei malaria mouse model): 1.2 mg/kg
Single oral dose giving 90% reduction in parasitemia ([4]; P. berghei malaria mouse model): 2.7 mg/kg
Single oral dose giving 99% reduction in parasitemia ([4]; P. berghei malaria mouse model): 5.3 mg/kg
Cure rate ([4]; single dose of 30 mg/kg): 50%
Animals cured ([4]; single oral dose of 100 mg/kg): 100%
Cure ([4]; thrice-daily oral doses of 50 mg/kg): complete cure

C[C@@H]1Cc2c([nH]c3cc(F)c(F)cc23)[C@]2(N1)C(=O)Nc1ccc(Cl)cc12 [(−)-6]
Efficacy in the P. berghei mouse model [1]: no efficacy; also recorded: poor efficacy regardless of dose
PAMPA %FA [2]: 97%

C[C@@H]1Cc2c([nH]c3cc(Cl)c(F)cc23)[C@]2(N1)C(=O)Nc1ccc(Cl)cc12 [(−)-7]
Efficacy in the P. berghei mouse model [1]: no efficacy; also recorded: poor efficacy regardless of dose
